Where only a bound is given, the exact number is not on record here.

The target in the first assay is T1, hmGluR1 receptor (Homo sapiens, UniProt Q13255).
T1 construct: expressed in transfected cells
T1 sequence (Q13255 19-1194): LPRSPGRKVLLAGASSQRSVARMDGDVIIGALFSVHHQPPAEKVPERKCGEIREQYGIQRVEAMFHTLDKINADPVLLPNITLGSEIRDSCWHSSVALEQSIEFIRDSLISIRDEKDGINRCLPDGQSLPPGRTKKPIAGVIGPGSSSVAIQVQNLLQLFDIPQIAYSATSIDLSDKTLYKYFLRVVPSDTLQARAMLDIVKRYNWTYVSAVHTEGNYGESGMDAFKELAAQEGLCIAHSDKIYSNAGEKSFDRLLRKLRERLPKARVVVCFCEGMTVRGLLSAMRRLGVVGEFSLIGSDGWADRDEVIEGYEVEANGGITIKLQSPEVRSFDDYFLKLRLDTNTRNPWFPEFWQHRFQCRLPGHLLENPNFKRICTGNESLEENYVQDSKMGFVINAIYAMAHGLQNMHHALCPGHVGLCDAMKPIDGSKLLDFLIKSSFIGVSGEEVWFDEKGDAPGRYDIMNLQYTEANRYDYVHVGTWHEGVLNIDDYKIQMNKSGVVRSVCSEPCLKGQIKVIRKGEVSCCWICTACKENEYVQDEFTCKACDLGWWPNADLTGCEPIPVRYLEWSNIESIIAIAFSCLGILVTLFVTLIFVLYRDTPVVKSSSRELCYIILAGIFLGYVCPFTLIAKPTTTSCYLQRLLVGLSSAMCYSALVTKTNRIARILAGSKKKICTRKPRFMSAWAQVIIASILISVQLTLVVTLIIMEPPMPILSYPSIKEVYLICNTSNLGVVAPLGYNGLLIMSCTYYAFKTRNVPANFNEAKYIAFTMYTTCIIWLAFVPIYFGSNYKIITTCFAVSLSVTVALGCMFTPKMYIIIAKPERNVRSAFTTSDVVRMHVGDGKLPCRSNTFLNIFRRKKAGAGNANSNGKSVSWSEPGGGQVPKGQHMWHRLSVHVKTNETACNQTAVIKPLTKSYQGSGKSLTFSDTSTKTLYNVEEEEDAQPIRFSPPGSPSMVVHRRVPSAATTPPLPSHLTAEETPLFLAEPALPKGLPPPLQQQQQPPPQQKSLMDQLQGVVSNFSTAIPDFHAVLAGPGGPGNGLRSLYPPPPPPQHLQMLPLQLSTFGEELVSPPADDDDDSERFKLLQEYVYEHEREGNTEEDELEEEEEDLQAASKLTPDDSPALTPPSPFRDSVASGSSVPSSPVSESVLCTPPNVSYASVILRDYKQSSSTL
Nature of the assay: IC50 determination: intracellular calcium mobilization (FLIPR) upon Quisqualate stimulation in CHO cells stably expressing hmGluR1. The settings on record: against Quisqualate 1 μM (EC80), FLIPR calcium mobilization, read-out: IC50 Class. Format: cell-based. Put shortly: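 CHO cells stably expressing hmGluR1 were kept overnight in DMEM high glucose with GPT and 1 mM pyruvate, then loaded 2 h with Calcium 3 dye.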
Regarding `COCCn1cnc2c(sc3ncnc(NC4CC4)c32)c1=O` [95EC], the IC50 is over 1000 nM. With `COc1ccc(Nc2ncnc3sc4c(=O)n(-c5ccc(F)cc5)cnc4c23)cc1` [95GK], the IC50 was over 1000 nM. Regarding `CN(C)c1ncnc2sc3c(=O)n(-c4ccc(Br)cc4F)cnc3c12` [95AR], the IC50 is under 50 nM. For `Cc1ccc(-n2cnc3c(sc4nccc(NC5CCC(O)CC5)c43)c2=O)cc1` (stereo not shown) [28DE], the 50% inhibitory concentration (IC50) is 150 to 1000 nM. Regarding `Cc1ccc(-n2cnc3c(sc4ncnc(NCC(C)(C)C)c43)c2=O)cc1` [95FP], the IC50 was over 1000 nM.

Turning to `CN(C)c1cccc2sc3c(=O)n(-c4ccc(F)cc4)cnc3c12` [103N], the IC50 fell in the range of 150 to 1000 nM. Take `C=C(C)CNc1ccnc2sc3c(=O)n(-c4ccc(OC)cc4)cnc3c12` [28FB]: the IC50 was under 50 nM.

The same assay, now with this note: against Quisqualate 1 μM (EC80), class symbols, read-out: mGIuR 1 IC50.
As for `C=CCOc1ccnc2sc3c(=O)n(-c4ccc(C)cc4)cnc3c12` [66D], the IC50 is under 50 nM.

For the compound `COc1ccc(-n2cnc3c(sc4cccc(N(C)C)c43)c2=O)cc1` [103E], the IC50 was in the range of 50 to 150 nM. On to `CN(C)c1cccc2sc3c(=O)n(C4CCCCC4)cnc3c12` [103B], for which the IC50 is 150 to 1000 nM.

These data come from patent US7989464B2, “mGluR1 antagonists as therapeutic agents” (Schering Corporation, priority 2004, dated 2011).
